According to ChEMBL document CHEMBL4411284, “Discovery of novel quaternary ammonium compounds based on quinuclidine-3-ol as new potential antimicrobial candidates” (Eur J Med Chem, 2019):
Activity calls are given as the source filed them. The calls are words filed in the database; no cut-off is given here.

How the values were obtained:
Staphylococcus aureus [1] = assay: Antimicrobial activity against Staphylococcus aureus ATCC 29213 after 24 to 48 hrs by broth microdilution assay; format: functional
Acinetobacter baumannii [2] = assay: Antimicrobial activity against Acinetobacter baumannii ATCC 19606 after 24 to 48 hrs by broth microdilution assay; format: functional; conditions: ATCC 19606 = CIP 70.34 = JCM 6841
Enterococcus faecalis [3] = assay: Antimicrobial activity against Enterococcus faecalis ATCC 29212 after 24 to 48 hrs by broth microdilution assay; format: functional
Aspergillus niger = assay: Antifungal activity against Aspergillus niger after 24 to 48 hrs by broth microdilution assay; format: functional
Candida albicans = assay: Antifungal activity against Candida albicans ATCC 90029 after 24 to 48 hrs by broth microdilution assay; format: functional
Klebsiella pneumoniae [4] = assay: Bactericidal activity against Klebsiella pneumoniae clinical isolate preincubated for 24 to 48 hrs followed by replating on MHA plates and measured after 18 hrs by broth microdilution assay; format: functional
Escherichia coli [5] = assay: Antimicrobial activity against Escherichia coli clinical isolate after 24 to 48 hrs by broth microdilution assay; format: functional
Pseudomonas aeruginosa [6] = assay: Bactericidal activity against Pseudomonas aeruginosa ATCC 27853 preincubated for 24 to 48 hrs followed by replating on MHA plates and measured after 18 hrs by broth microdilution assay; format: functional
Streptococcus pyogenes [7] = assay: Antimicrobial activity against Streptococcus pyogenes ATCC 19615 after 24 to 48 hrs by broth microdilution assay; format: functional
Escherichia coli [8] = assay: Bactericidal activity against Escherichia coli clinical isolate preincubated for 24 to 48 hrs followed by replating on MHA plates and measured after 18 hrs by broth microdilution assay; format: functional
Penicillium citrinum = assay: Antifungal activity against Penicillium citrinum after 24 to 48 hrs by broth microdilution assay; format: functional
Staphylococcus aureus [9] = assay: Bactericidal activity against methicillin-resistant Staphylococcus aureus clinical isolate preincubated for 24 to 48 hrs followed by replating on MHA plates and measured after 18 hrs by broth microdilution assay; format: functional
Streptococcus pyogenes [10] = assay: Bactericidal activity against Streptococcus pyogenes ATCC 19615 preincubated for 24 to 48 hrs followed by replating on MHA plates and measured after 18 hrs by broth microdilution assay; format: functional
Klebsiella pneumoniae [11] = assay: Antimicrobial activity against Klebsiella pneumoniae clinical isolate after 24 to 48 hrs by broth microdilution assay; format: functional
Klebsiella pneumoniae [12] = assay: Bactericidal activity against Klebsiella pneumoniae ATCC 13883 preincubated for 24 to 48 hrs followed by replating on MHA plates and measured after 18 hrs by broth microdilution assay; format: functional
HEK293 = assay: Cytotoxicity against HEK293 cells assessed as reduction in cell viability after 48 hrs by MTS assay; format: cell-based; conditions: Homo sapiens, HEK293, 48 h
Staphylococcus aureus [13] = assay: Bactericidal activity against Staphylococcus aureus ATCC 29213 preincubated for 24 to 48 hrs followed by replating on MHA plates and measured after 18 hrs by broth microdilution assay; format: functional
Staphylococcus aureus [14] = assay: Antimicrobial activity against methicillin-resistant Staphylococcus aureus clinical isolate after 24 to 48 hrs by broth microdilution assay; format: functional
Salmonella typhimurium [15] = assay: Bactericidal activity against Salmonella typhimurium WDCM 00031 preincubated for 24 to 48 hrs followed by replating on MHA plates and measured after 18 hrs by broth microdilution assay; format: functional, Salmonella enterica subsp. enterica serovar Typhimurium; conditions: Salmonella enterica
Escherichia coli [16] = assay: Antimicrobial activity against Escherichia coli ATCC 25922 after 24 to 48 hrs by broth microdilution assay; format: functional
Escherichia coli [17] = assay: Bactericidal activity against Escherichia coli ATCC 25922 preincubated for 24 to 48 hrs followed by replating on MHA plates and measured after 18 hrs by broth microdilution assay; format: functional
TERT-RPE1 = assay: Cytotoxicity against human RPE1 cells assessed as reduction in cell viability after 48 hrs by MTS assay; format: cell-based; conditions: RPE-1, 48 h
Acinetobacter baumannii [18] = assay: Bactericidal activity against Acinetobacter baumannii clinical isolate preincubated for 24 to 48 hrs followed by replating on MHA plates and measured after 18 hrs by broth microdilution assay; format: functional
Klebsiella pneumoniae [19] = assay: Antimicrobial activity against Klebsiella pneumoniae ATCC 13883 after 24 to 48 hrs by broth microdilution assay; format: functional
Listeria monocytogenes [20] = assay: Antimicrobial activity against Listeria monocytogenes ATCC 19111 (1/2a) after 24 to 48 hrs by broth microdilution assay; format: functional
Pseudomonas aeruginosa [21] = assay: Antimicrobial activity against Pseudomonas aeruginosa ATCC 27853 after 24 to 48 hrs by broth microdilution assay; format: functional
Enterococcus faecalis [22] = assay: Bactericidal activity against Enterococcus faecalis ATCC 29212 preincubated for 24 to 48 hrs followed by replating on MHA plates and measured after 18 hrs by broth microdilution assay; format: functional
Salmonella typhimurium [23] = assay: Antimicrobial activity against Salmonella typhimurium WDCM 00031 after 24 to 48 hrs by broth microdilution assay; format: functional, Salmonella enterica subsp. enterica serovar Typhimurium; conditions: Salmonella enterica
Acinetobacter baumannii [24] = assay: Antimicrobial activity against Acinetobacter baumannii clinical isolate after 24 to 48 hrs by broth microdilution assay; format: functional
Acinetobacter baumannii [25] = assay: Bactericidal activity against Acinetobacter baumannii ATCC 19606 preincubated for 24 to 48 hrs followed by replating on MHA plates and measured after 18 hrs by broth microdilution assay; format: functional; conditions: ATCC 19606 = CIP 70.34 = JCM 6841
Listeria monocytogenes [26] = assay: Bactericidal activity against Listeria monocytogenes ATCC 19111 (1/2a) preincubated for 24 to 48 hrs followed by replating on MHA plates and measured after 18 hrs by broth microdilution assay; format: functional
Staphylococcus aureus [27] = assay: Growth inhibition in Staphylococcus aureus ATCC 29213 at 1/4 to 1/2 times MIC after 6 hrs; format: functional, organism-based
Staphylococcus aureus [28] = assay: Antimicrobial activity against Staphylococcus aureus ATCC 29213 assessed as bacterial membrane disruption by measuring dead cells at 4 times MIC after 15 mins by thiazole orange/propidium iodide staining based flow cytometric analysis (reference value: 3.22%); format: functional
Staphylococcus aureus [29] = assay: Induction of morphological changes in Staphylococcus aureus ATCC 29213 assessed as cell wall damage at MIC after 1 hr by atomic force microscopic analysis; format: functional, organism-based
Staphylococcus aureus [30] = assay: Induction of membrane lysis in Staphylococcus aureus ATCC 29213 at 4 to 8 times MIC by spectroflurometric analysis based propidium iodide uptake assay; format: functional, organism-based
Staphylococcus aureus [31] = assay: Induction of membrane lysis in Staphylococcus aureus ATCC 29213 at 0.5 to 1 times MIC by spectroflurometric analysis based propidium iodide uptake assay; format: functional, organism-based
Staphylococcus aureus [32] = assay: Antibiofilm activity against Staphylococcus aureus ATCC 29213 after 3 days by crystal violet staining based assay; format: functional, organism-based
Staphylococcus aureus [33] = assay: Antibiofilm activity against Staphylococcus aureus ATCC 29213 at 1/32 to 1/2 times MIC after 3 days by crystal violet staining based assay relative to control; format: functional
Staphylococcus aureus [34] = assay: Antimicrobial activity against Staphylococcus aureus ATCC 29213 assessed as bacterial membrane disruption by measuring dead cells at MIC after 15 mins by thiazole orange/propidium iodide staining based flow cytometric analysis (reference value: 3.22%); format: functional
Staphylococcus aureus [35] = assay: Antimicrobial activity against Staphylococcus aureus ATCC 29213 assessed as bacterial membrane disruption by measuring live cells at MIC after 15 mins by thiazole orange/propidium iodide staining based flow cytometric analysis (reference value: 88.47%); format: functional
Staphylococcus aureus [36] = assay: Antimicrobial activity against Staphylococcus aureus ATCC 29213 assessed as dead cells at 4 times MIC by fluorescence microscopic analysis; format: functional, organism-based
Staphylococcus aureus [37] = assay: Antimicrobial activity against Staphylococcus aureus ATCC 29213 assessed as live cells at MIC by fluorescence microscopic analysis; format: functional, organism-based
Staphylococcus aureus [38] = assay: Antimicrobial activity against Staphylococcus aureus ATCC 29213 assessed as bacterial membrane disruption by measuring live cells at 4 times MIC after 15 mins by thiazole orange/propidium iodide staining based flow cytometric analysis (reference value: 88.47%); format: functional
Staphylococcus aureus [39] = assay: Induction of morphological changes in Staphylococcus aureus ATCC 29213 assessed as cell wall damage at MIC after 3 hrs by atomic force microscopic analysis; format: functional, organism-based
Staphylococcus aureus [40] = assay: Induction of morphological changes in Staphylococcus aureus ATCC 29213 assessed as cell wall damage at 8 times MIC after 1 hr by atomic force microscopic analysis; format: functional, organism-based

CCCCCCCCCCCC[N+]12CCC(CC1)C(O)C2.[Br-] (configuration not stated)
MIC (Staphylococcus aureus [1]): 15.6 µg/mL | MIC (Acinetobacter baumannii [2]): 125 µg/mL | MIC (Enterococcus faecalis [3]): 15.6 µg/mL | MIC50 (Aspergillus niger): 7.8 µg/mL | MIC90 (Aspergillus niger): 15.6 µg/mL | MIC50 (Candida albicans): 1.95 µg/mL | MIC90 (Candida albicans): 3.9 µg/mL | MBC (Klebsiella pneumoniae [4]): 250 µg/mL | MIC (Escherichia coli [5]): 62.5 µg/mL | MBC (Pseudomonas aeruginosa [6]): 500 µg/mL | MIC (Streptococcus pyogenes [7]): 0.48 µg/mL | MBC (Escherichia coli [8]): 62.5 µg/mL | MIC50 (Penicillium citrinum): 31.2 µg/mL | MIC90 (Penicillium citrinum): 62.5 µg/mL | MBC (Staphylococcus aureus [9]): 62.5 µg/mL | MBC (Streptococcus pyogenes [10]): 0.48 µg/mL | MIC (Klebsiella pneumoniae [11]): 250 µg/mL | MBC (Klebsiella pneumoniae [12]): 125 µg/mL | IC50 (HEK293): 1 µg/mL | MBC (Staphylococcus aureus [13]): 15.6 µg/mL | MIC (Staphylococcus aureus [14]): 62.5 µg/mL | MBC (Salmonella typhimurium [15]): 250 µg/mL | MIC (Escherichia coli [16]): 62.5 µg/mL | MBC (Escherichia coli [17]): 62.5 µg/mL | IC50 (TERT-RPE1): 8 µg/mL | MBC (Acinetobacter baumannii [18]): 125 µg/mL | MIC (Klebsiella pneumoniae [19]): 125 µg/mL | MIC (Listeria monocytogenes [20]): 31.2 µg/mL | MIC (Pseudomonas aeruginosa [21]): 250 µg/mL | MBC (Enterococcus faecalis [22]): 15.6 µg/mL | MIC (Salmonella typhimurium [23]): 250 µg/mL | MIC (Acinetobacter baumannii [24]): 62.5 µg/mL | MBC (Acinetobacter baumannii [25]): 250 µg/mL | MBC (Listeria monocytogenes [26]): 31.2 µg/mL

CCCCCCCCCCCCCC[N+]12CCC(CC1)C(O)C2.[Br-] (configuration not stated)
MIC (Staphylococcus aureus [1]): 0.97 µg/mL | MIC (Acinetobacter baumannii [2]): 15.6 µg/mL | MIC (Enterococcus faecalis [3]): 0.97 µg/mL | MIC50 (Aspergillus niger): 0.48 µg/mL | MIC90 (Aspergillus niger): 0.97 µg/mL | MIC50 (Candida albicans): 0.06 µg/mL | MIC90 (Candida albicans): 0.12 µg/mL | MBC (Klebsiella pneumoniae [4]): 15.6 µg/mL | growth inhibition (GI) (Staphylococcus aureus [27]): Active | MIC (Escherichia coli [5]): 15.6 µg/mL | Activity (Staphylococcus aureus [28]): 55.69% | MBC (Pseudomonas aeruginosa [6]): 31.2 µg/mL | MIC (Streptococcus pyogenes [7]): 0.06 µg/mL | Activity (Staphylococcus aureus [29]): inactive | Activity (Staphylococcus aureus [30]): Active | Activity (Staphylococcus aureus [31]): inactive | MBC (Escherichia coli [8]): 15.6 µg/mL | MIC50 (Penicillium citrinum): 1.95 µg/mL | MIC90 (Penicillium citrinum): 3.9 µg/mL | Activity (Staphylococcus aureus [32]): Dose-dependent effect | Activity (Staphylococcus aureus [33]): 2.3 - 84% | MBC (Staphylococcus aureus [9]): 3.9 µg/mL | MBC (Streptococcus pyogenes [10]): 0.06 µg/mL | MIC (Klebsiella pneumoniae [11]): 15.6 µg/mL | Activity (Staphylococcus aureus [34]): 14.54% | MBC (Klebsiella pneumoniae [12]): 15.6 µg/mL | IC50 (HEK293): 1 µg/mL | MBC (Staphylococcus aureus [13]): 0.97 µg/mL | Activity (Staphylococcus aureus [35]): 66.27% | MIC (Staphylococcus aureus [14]): 3.9 µg/mL | MBC (Salmonella typhimurium [15]): 31.2 µg/mL | MIC (Escherichia coli [16]): 3.9 µg/mL | Activity (Staphylococcus aureus [36]): Active | MBC (Escherichia coli [17]): 7.8 µg/mL | IC50 (TERT-RPE1): 15 µg/mL | MBC (Acinetobacter baumannii [18]): 15.6 µg/mL | MIC (Klebsiella pneumoniae [19]): 15.6 µg/mL | MIC (Listeria monocytogenes [20]): 3.9 µg/mL | MIC (Pseudomonas aeruginosa [21]): 31.2 µg/mL | MBC (Enterococcus faecalis [22]): 0.97 µg/mL | Activity (Staphylococcus aureus [37]): Active | Activity (Staphylococcus aureus [38]): 23.66% | MIC (Salmonella typhimurium [23]): 31.2 µg/mL | Activity (Staphylococcus aureus [39]): Active | Activity (Staphylococcus aureus [40]): Active | MIC (Acinetobacter baumannii [24]): 7.8 µg/mL | MBC (Acinetobacter baumannii [25]): 15.6 µg/mL | MBC (Listeria monocytogenes [26]): 3.9 µg/mL
